Values of other authors in patent US9604971B2, “Co-crystal of the PAR-1 receptor antagonists vorapaxar and aspirin” (ARALEZ PHARMACEUTICALS TRADING DAC, priority 2013, dated 2017).

Conditions: over time; reverted to the crystalline structure of Form 1

stability of crystalline polymorphic form: unstable
SMILES: CCOC(=O)N[C@@H]1CC[C@@H]2[C@@H](C1)C[C@H]1C(=O)O[C@H](C)[C@H]1[C@H]2/C=C/c1ccc(-c2cccc(F)c2)cn1 [Form 2]
